Source: the OligoGym collection
HELM strings list units from the 5' end as sugar, base in round brackets, then linkage (d deoxyribose, r ribose, m 2'-O-methyl, p phosphodiester). Strings are as the collection lists them, not checked against the first reports. ss, as = sense and antisense strand; [lna] = locked nucleic acid (LNA); [una] = unlocked nucleic acid; [hna] = hexitol nucleic acid; [s4r] = 4'-thioribose; [fl2r] = 2'-fluoro

Conditions: siRNA
Note: test system not given here.

Substance	target mRNA knockdown
RNA1{[s4r](C)p.[s4r](G)p.[s4r](U)p.[s4r](A)p.[s4r](C)p.[s4r](G)p.r(C)p.r(G)p.r(G)p.r(A)p.r(A)p.r(U)p.r(A)p.[s4r](C)p.[s4r](U)p.[s4r](U)p.[s4r](C)p.[s4r](G)p.[s4r](A)p.r(T)p.r(T)}|RNA2{[s4r](U)p.[s4r](C)p.r(G)p.r(A)p.r(A)p.r(G)p.r(U)p.r(A)p.r(U)p.r(U)p.r(C)p.r(C)p.r(G)p.r(C)p.r(G)p.r(U)p.r(A)p.[s4r](C)p.[s4r](G)p.r(T)p.r(T)}$$$RNA1{StrandType:ss}|RNA2{StrandType:as}$	28.6%
RNA1{m(A)p.r(A)p.m(G)p.r(G)p.m(A)p.r(G)p.m(A)p.r(U)p.m(C)p.r(A)p.m(A)p.r(C)p.m(A)p.r(U)p.m(U)p.r(U)p.m(U)p.r(C)p.m(A)p.r(T)p.r(T)}|RNA2{m(U)p.r(G)p.m(A)p.r(A)p.m(A)p.r(A)p.m(U)p.r(G)p.m(U)p.r(U)p.m(G)p.r(A)p.m(U)p.r(C)p.m(U)p.r(C)p.m(C)p.r(U)p.m(U)p.r(T)p.r(T)}$$$RNA1{StrandType:ss}|RNA2{StrandType:as}$	75%
RNA1{r(C)p.r(U)p.[fl2r](A)p.[fl2r](A)p.r(G)p.r(C)p.r(C)p.r(U)p.r(G)p.[fl2r](U)p.r(U)p.r(U)p.r(C)p.r(U)p.r(U)p.r(C)p.r(C)p.r(U)p.r(C)p.r(T)p.r(T)}|RNA2{r(G)p.r(A)p.r(G)p.r(G)p.r(A)p.r(A)p.r(G)p.r(A)p.r(A)p.r(A)p.r(C)p.r(A)p.r(G)p.r(G)p.r(C)p.r(U)p.[fl2r](U)p.r(A)p.r(G)p.r(T)p.r(T)}$$$RNA1{StrandType:ss}|RNA2{StrandType:as}$	85%
RNA1{r(G)p.r(U)p.r(A)p.r(U)p.r(G)p.r(A)p.r(C)p.r(C)p.r(G)p.r(A)p.r(C)p.r(U)p.r(A)p.r(C)p.r(G)p.r(C)p.r(G)p.r(U)p.r(A)p.r(T)p.r(T)}|RNA2{r(U)p.r(U)p.r(C)p.r(A)p.r(G)p.r(U)p.r(G)p.r(U)p.r(G)p.r(A)p.r(U)p.r(G)p.r(A)p.r(C)p.[una](A)p.r(C)p.r(U)p.r(U)p.r(G)p.r(T)p.r(T)}$$$RNA1{StrandType:ss}|RNA2{StrandType:as}$	86%
RNA1{r(G)p.[hna](A)p.r(C)p.r(G)p.r(U)p.r(A)p.r(A)p.[hna](A)p.r(C)p.r(G)p.r(G)p.r(C)p.r(C)p.[hna](A)p.r(C)p.r(A)p.[hna](A)p.r(G)p.r(U)p.r(U)p.r(C)}|RNA2{r(A)p.r(C)p.r(U)p.r(U)p.r(G)p.r(U)p.r(G)p.r(G)p.r(C)p.r(C)p.r(G)p.r(U)p.r(U)p.r(U)p.r(A)p.r(C)p.r(G)p.r(U)p.[lna](C)p.[lna](G)p.r(C)}$$$RNA1{StrandType:ss}|RNA2{StrandType:as}$	79.1%
RNA1{[s4r](C)p.[s4r](G)p.[s4r](U)p.[s4r](A)p.r(C)p.r(G)p.r(C)p.r(G)p.r(G)p.r(A)p.r(A)p.r(U)p.r(A)p.r(C)p.r(U)p.[s4r](U)p.[s4r](C)p.[s4r](G)p.[s4r](A)p.r(T)p.r(T)}|RNA2{[s4r](U)p.[s4r](C)p.[s4r](G)p.[s4r](A)p.r(A)p.r(G)p.r(U)p.r(A)p.r(U)p.r(U)p.r(C)p.r(C)p.r(G)p.r(C)p.r(G)p.[s4r](U)p.[s4r](A)p.[s4r](C)p.[s4r](G)p.r(T)p.r(T)}$$$RNA1{StrandType:ss}|RNA2{StrandType:as}$	0%
RNA1{[s4r](C)p.[s4r](G)p.r(U)p.r(A)p.r(C)p.r(G)p.r(C)p.r(G)p.r(G)p.r(A)p.r(A)p.r(U)p.r(A)p.r(C)p.r(U)p.r(U)p.r(C)p.[s4r](G)p.[s4r](A)p.r(T)p.r(T)}|RNA2{r(U)p.r(C)p.r(G)p.r(A)p.r(A)p.r(G)p.r(U)p.r(A)p.r(U)p.r(U)p.r(C)p.r(C)p.r(G)p.r(C)p.r(G)p.r(U)p.r(A)p.r(C)p.r(G)p.r(T)p.r(T)}$$$RNA1{StrandType:ss}|RNA2{StrandType:as}$	95.3%
RNA1{r(G)p.r(A)p.r(C)p.r(G)p.[hna](U)p.r(A)p.r(A)p.[hna](A)p.r(C)p.r(G)p.[hna](G)p.r(C)p.r(C)p.[hna](A)p.r(C)p.r(A)p.r(A)p.r(G)p.[hna](U)p.r(U)p.d(T)}|RNA2{r(A)p.r(C)p.r(U)p.r(U)p.r(G)p.r(U)p.r(G)p.r(G)p.r(C)p.r(C)p.r(G)p.r(U)p.r(U)p.r(U)p.r(A)p.r(C)p.r(G)p.r(U)p.[lna](C)p.[lna](G)p.r(C)}$$$RNA1{StrandType:ss}|RNA2{StrandType:as}$	83.9%
RNA1{d(G)p.d(C)p.d(A)p.d(G)p.d(C)p.d(A)p.d(C)p.d(G)p.d(A)p.d(C)p.d(U)p.d(U)p.d(C)p.d(U)p.d(U)p.d(C)p.d(A)p.d(A)p.d(G)p.r(T)p.r(T)}|RNA2{r(C)p.r(U)p.r(U)p.r(G)p.r(A)p.r(A)p.r(G)p.r(A)p.r(A)p.r(G)p.r(U)p.r(C)p.r(G)p.r(U)p.r(G)p.r(C)p.r(U)p.r(G)p.r(C)p.r(T)p.r(T)}$$$RNA1{StrandType:ss}|RNA2{StrandType:as}$	38%
RNA1{[fl2r](G)p.r(A)p.[fl2r](G)p.r(U)p.[fl2r](A)p.r(U)p.[fl2r](U)p.r(U)p.[fl2r](C)p.r(C)p.[fl2r](G)p.r(C)p.[fl2r](U)p.r(G)p.[fl2r](G)p.r(A)p.[fl2r](A)p.r(C)p.[fl2r](U)p.r(T)p.r(T)}|RNA2{r(A)p.r(G)p.r(U)p.r(U)p.r(C)p.r(C)p.r(A)p.r(G)p.r(C)p.r(G)p.r(G)p.r(A)p.r(A)p.r(A)p.r(U)p.r(A)p.r(C)p.r(U)p.r(C)p.r(T)p.r(T)}$$$RNA1{StrandType:ss}|RNA2{StrandType:as}$	21%
RNA1{r(G)p.r(A)p.r(A)p.r(G)p.r(A)p.r(G)p.r(C)p.r(C)p.m(U)p.r(A)p.m(C)p.r(A)p.r(C)p.r(A)p.r(A)p.r(C)p.r(C)p.r(C)p.r(U)p.r(T)p.r(T)}|RNA2{r(A)p.r(G)p.r(G)p.r(G)p.r(U)p.r(U)p.r(G)p.m(U)p.r(G)p.m(U)p.r(A)p.r(G)p.r(G)p.r(C)p.r(U)p.r(C)p.r(U)p.r(U)p.r(C)p.r(T)p.r(T)}$$$RNA1{StrandType:ss}|RNA2{StrandType:as}$	76%
RNA1{r(U)p.r(C)p.r(C)p.r(U)p.r(C)p.r(G)p.r(U)p.r(C)p.r(G)p.r(U)p.r(C)p.r(U)p.r(G)p.r(U)p.r(U)p.r(C)p.m(U)p.r(A)p.r(A)p.r(T)p.r(T)}|RNA2{r(U)p.m(U)p.r(A)p.r(G)p.r(A)p.r(A)p.r(C)p.r(A)p.r(G)p.r(A)p.r(C)p.r(G)p.r(A)p.r(C)p.r(G)p.r(A)p.r(G)p.r(G)p.r(A)p.r(T)p.r(T)}$$$RNA1{StrandType:ss}|RNA2{StrandType:as}$	84%
RNA1{m(U)p.r(C)p.m(U)p.r(C)p.m(G)p.r(U)p.m(A)p.r(A)p.m(G)p.r(G)p.m(A)p.r(C)p.m(G)p.r(A)p.m(A)p.r(A)p.m(C)p.r(G)p.r(A)p.r(T)p.r(T)}|RNA2{r(U)p.r(C)p.r(G)p.r(U)p.r(U)p.r(U)p.r(C)p.r(G)p.r(U)p.r(C)p.r(C)p.r(U)p.r(U)p.r(A)p.r(C)p.r(G)p.r(A)p.r(G)p.r(A)p.r(T)p.r(T)}$$$RNA1{StrandType:ss}|RNA2{StrandType:as}$	34%
RNA1{r(A)p.r(U)p.r(C)p.m(U)p.r(A)p.r(C)p.r(C)p.m(C)p.r(A)p.r(G)p.r(C)p.r(U)p.r(C)p.m(U)p.r(C)p.r(C)p.r(C)p.r(U)p.r(U)p.r(T)p.r(T)}|RNA2{r(A)p.r(A)p.r(G)p.r(G)p.r(G)p.r(A)p.r(G)p.r(A)p.r(G)p.r(C)p.m(U)p.r(G)p.r(G)p.r(G)p.m(U)p.r(A)p.r(G)p.r(A)p.r(U)p.r(T)p.r(T)}$$$RNA1{StrandType:ss}|RNA2{StrandType:as}$	75%
RNA1{r(A)p.m(U)p.r(G)p.r(G)p.r(G)p.r(A)p.r(G)p.r(A)p.r(A)p.r(G)p.m(U)p.r(A)p.r(G)p.r(U)p.r(C)p.r(C)p.r(C)p.r(C)p.r(C)p.r(T)p.r(T)}|RNA2{r(G)p.r(G)p.r(G)p.r(G)p.r(G)p.r(A)p.r(C)p.m(U)p.r(A)p.r(C)p.r(U)p.r(U)p.r(C)p.r(U)p.r(C)p.r(C)p.m(C)p.r(A)p.r(U)p.r(T)p.r(T)}$$$RNA1{StrandType:ss}|RNA2{StrandType:as}$	82%
RNA1{r(C)p.r(U)p.r(C)p.r(U)p.r(G)p.r(G)p.r(C)p.r(C)p.r(U)p.r(U)p.r(U)p.r(C)p.r(U)p.r(C)p.r(U)p.r(C)p.m(U)p.r(A)p.r(G)p.r(T)p.r(T)}|RNA2{r(C)p.r(U)p.r(A)p.r(G)p.r(A)p.r(G)p.r(A)p.r(G)p.r(A)p.r(A)p.r(A)p.r(G)p.r(G)p.r(C)p.r(C)p.r(A)p.r(G)p.r(A)p.r(G)p.r(T)p.r(T)}$$$RNA1{StrandType:ss}|RNA2{StrandType:as}$	47%
RNA1{m(A)p.r(A)p.m(G)p.r(G)p.m(A)p.r(A)p.m(C)p.r(G)p.m(G)p.r(G)p.m(G)p.r(A)p.m(C)p.r(A)p.m(C)p.r(U)p.m(U)p.r(A)p.m(C)p.r(T)p.r(T)}|RNA2{r(G)p.r(U)p.r(A)p.r(A)p.r(G)p.r(U)p.r(G)p.r(U)p.r(C)p.r(C)p.r(C)p.r(C)p.r(G)p.r(U)p.r(U)p.r(C)p.r(C)p.r(U)p.r(U)p.r(T)p.r(T)}$$$RNA1{StrandType:ss}|RNA2{StrandType:as}$	12%
RNA1{r(G)p.r(A)p.r(C)p.r(G)p.[hna](U)p.r(A)p.r(A)p.[hna](A)p.r(C)p.r(G)p.[hna](G)p.r(C)p.r(C)p.[hna](A)p.r(C)p.r(A)p.r(A)p.r(G)p.[hna](U)p.[hna](U)p.d(T)}|RNA2{r(A)p.m(C)p.r(U)p.r(U)p.r(G)p.r(U)p.r(G)p.r(G)p.r(C)p.r(C)p.r(G)p.r(U)p.r(U)p.r(U)p.r(A)p.r(C)p.r(G)p.r(U)p.r(C)p.r(G)p.r(C)}$$$RNA1{StrandType:ss}|RNA2{StrandType:as}$	44.7%
RNA1{[hna](G)p.[hna](A)p.[hna](C)p.r(G)p.r(U)p.r(A)p.r(A)p.r(A)p.r(C)p.r(G)p.r(G)p.r(C)p.r(C)p.r(A)p.r(C)p.r(A)p.r(A)p.[hna](G)p.[hna](U)p.[hna](U)p.d(T)}|RNA2{r(A)p.m(C)p.r(U)p.r(U)p.r(G)p.r(U)p.r(G)p.r(G)p.r(C)p.r(C)p.r(G)p.r(U)p.r(U)p.r(U)p.r(A)p.r(C)p.r(G)p.r(U)p.r(C)p.r(G)p.r(C)}$$$RNA1{StrandType:ss}|RNA2{StrandType:as}$	84%
RNA1{r(U)p.r(U)p.r(C)p.[fl2r](U)p.r(A)p.r(A)p.r(C)p.r(C)p.r(G)p.r(G)p.r(G)p.[fl2r](C)p.r(A)p.r(G)p.r(C)p.r(U)p.r(U)p.r(C)p.r(U)p.r(T)p.r(T)}|RNA2{r(A)p.r(G)p.r(A)p.r(A)p.r(G)p.r(C)p.[fl2r](U)p.r(G)p.r(C)p.r(C)p.r(C)p.r(G)p.r(G)p.r(U)p.[fl2r](U)p.r(A)p.r(G)p.r(A)p.r(A)p.r(T)p.r(T)}$$$RNA1{StrandType:ss}|RNA2{StrandType:as}$	71%
